Test system: pentagastrin-stimulated acid secretion of the perfused rat stomach
Assay: Secretion-inhibiting action on the perfused rat stomach (pentagastrin-stimulated acid secretion, intraduodenal administration in vivo)
Conditions: anesthetized CD rat, female, pentagastrin 1 μg/kg i.v. infusion
Text: Testing of the Secretion-Inhibiting Action on the Perfused Rat Stomach
In Table A which follows, the influence of the compounds according to the invention on the pentagastrin-stimulated acid secretion of the perfused rat stomach after intraduodenal administration in vivo is shown.
The abdomen of anesthetized rats (CD rat, female, 200-250 g; 1.5 g/kg i.m. urethane) was opened after tracheotomy by a median upper abdominal incision and a PVC catheter was fixed transorally in the esophagus and another via the pylorus such that the ends of the tube just projected into the gastric lumen. The catheter leading from the pylorus led outward into the right abdominal wall through a side opening.
After thorough rinsing (about 50-100 ml), warm (37° C.) physiological NaCl solution was continuously passed through the stomach (0.5 ml/min, pH 6.8-6.9; Braun-Unita I). The pH (pH meter 632, glass electrode EA 147; φ=5 mm, Metrohm) and, by titration with a freshly prepared 0.01 N NaOH solution to pH 7 (Dosimat 665 Metrohm), the secreted HCl were determined in the effluent in each case collected at an interval of 15 minutes.
The gastric secretion was stimulated by continuous infusion of […] (=1.65 ml/h) of i.v. pentagastrin (left femoral vein) about 30 min after the end of the operation (i.e. after determination of 2 preliminary fractions). […]

Molecule	Inhibition of acid secretion (%) (dose 1 μmol/kg i.d.)	Inhibition of acid secretion (%) (dose 0.3 μmol/kg i.d.)
Cc1nc2c3c(ccn2c1C)[C@H](C)[C@H](O)CN3 [Example 8, (7S,8S,9R)-8-Hydroxy-2,3,7-trimethyl-7,8,9,10-tetrahydroimidazo[1.2-h][1.7]naphthyridine]	93	
(7S,8S,9R)-7-Cyanomethyl-8-hydroxy-2,3-dimethyl-7,8,9,10-tetrahydroimidazo[1.2h]-[1.7]naphthyridine [Example 9]		52

From patent publication US20040235883A1, “Alkyl-substituted imidazopyridines for the treatment of gastrointestinal disorders” (priority 2001, published 2004)
